Experimental data reported in patent US11976058B2, “Aromatic derivatives, preparation methods, and medical uses thereof” (Bioardis LLC, priority 2019, dated 2024).
pIC50: −log10 of the molar value. Read-outs that look alike come from different tables or passages of the source.

What was measured:
[1] = target: T1, human FGFR4 (Homo sapiens, UniProt P22455); experiment: FGFR4 enzymatic assay (HTRF KinEASE-TK); assay type: biochemical; settings: wild-type human FGFR4 cytoplasmic domain (460-802), GST-tag; 60 min preincubation at 25° C.; ATP 200 μM; read-out: Potency (IC50), FGFR4 enzymatic assay
T1 construct: human FGFR4 cytoplasmic domain (460-802); GST (N); purchased Carna Biosciences 08-136
In short: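 GST-tagged FGFR4 cytoplasmic domain (460-802) at 0.25 μg/ml, preincubated with compound 60 min at 25 °C in HEPES pH 7.0 buffer, then reacted 40 min at 37 °C with 0.3 μM biotin-TK peptide and 200 μM ATP. HTRF detection (665/612 nm) after 60 min; IC50 by four-parameter logistic fit.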

[2] = test system: Hep3B cells; experiment: Cell-based FGFR4 proliferation assay (CellTiter-Glo); settings: incubated with test compound for 3 days, CellTiter-Glo luminescence, read-out: Potency (IC50), Hep3B cell proliferation
Procedure: Hepatocellular carcinoma cell line Hep3B (ATCC, Cat #HB-8064) were cultured at 37° C., 5% CO2 in ATCC-formulated Eagle's Minimum Essential Medium supplemented with 10% fetal bovine serum; 1% Penicillin-Streptomycin.
(§1) Cell line: Hepatocellular carcinoma cell line Hep3B (ATCC, Cat #HB-8064).
In this assay, Hep3B cells are seeded in 384-well microplates, and after exposure to experimental compounds for […], CellTiter-Glo® Luminescent Cell Viability Assay kit (Promega, Cat #G7572) are used to determine the number of viable cells in the culture based on quantitation of the ATP present, which signals the presence of metabolically active cells. Luminescent signal is proportional to the amount of ATP present. The amount of ATP is directly proportional to the number of cells present in the culture, allowing drug-induced effects on cell proliferation to be measured.
Hep3B cells were plated at a density of 4×10^4/ml cells in a 384-well black/clear microplate with 20 μL per well of MEM Medium (Gibco Cat. #11095-080) supplemented with 10% fetal bovine serum; 1% Penicillin-Streptomycin, and cultured overnight at 37° C., 5% CO2. Various concentrations of the test compound (dissolved in 100% DMSO) were added to the wells of the cell plate. The cells were incubated with the test compound for 3 days at 37° C., 5% CO2. 5 μL of CellTiter-Glo® Reagent was added to each well of the cell plate. The cell plate was incubated for 5 min at 25° C. on a plate shaker (IKA MTS 2/4) at 300 rpm. Luminescence signals were read on a TECAN Spark 10M instrument (TECAN). […] The concentrations and percent inhibition values for a test compound were plotted and the concentration of the compound required to achieve 50% inhibition (IC50) is determined with a four-parameter logistic dose response equation. Dose-response curves were generated using Prism (GraphPad Software, La Jolla, CA, US) to calculate IC50 values for each compound tested.

[3] = test system: MAPK phosphorylation in Hep3B cells stimulated with FGF19; experiment: FGFR4 pMAPK AlphaLISA SureFire Ultra assay; assay type: cell-based; settings: serum-starved, compound 1 hour, FGF19 100 ng/ml for 4 hours, read-out: Potency (IC50), FGFR4 pMAPK AlphaLISA
Text: as §1
In normal liver, circulating FGF19 drives liver cell proliferation and regulates bile acid production. However aberrant expression of FGF19 in the liver drives HCC tumorigenesis, upregulates MAPK phosphorylation in FGF19-amplified malignant liver cells. AlphaScreen SureFire technology allows the detection of phosphorylated proteins in cellular lysates in a highly sensitive, quantitative assay. In these assays, sandwich antibody complexes, which are only formed in the presence of analyte, are captured by AlphaScreen Donor and Acceptor beads, bringing them into close proximity. The excitation of the Donor bead provokes the release of singlet oxygen molecules that triggers a cascade of energy transfer in the Acceptor beads, resulting in the emission of light at 520-620 nm.
Hep3B cells were plated at a density of 1×10^4/ml cells in a 96-well plate (Corning #3599), with 100 uL per well of MEM Medium (Gibco Cat #11095-080) supplemented with 10% fetal bovine serum; 1% Penicillin-Streptomycin, and cultured overnight at 37° C., 5% CO2. Starve Hep3B cells in serum-free medium (SFM) supplemented with 0.2% BSA and incubate the cells again overnight at 37° C., 5% CO2. Various concentrations of the test compound (prepared in 2x SFM) were added to the wells of the cell plate and then incubated for 1 hour at 37° C., 5% CO2. 50 μL of FGF19 in SFM was added to each well of the cell plate with a final FGF19 concentration of 100 ng/ml, and cells treated with FGF19 were stimulated for 4 hours at 37° C., 5% CO2. 5 μL of freshly prepared Donor Mix and Acceptor Mix were sequentially added to the cell plate, each followed with 1 hour of incubation at 25° C., 5% CO2. Read the cell plate on an Alpha Technology-compatible plate reader at 570 nm AlphaScreen, using standard AlphaLISA settings. The percent (%) inhibition=((ZPE−Alpha-Signal)/(ZPE−HPE))*100% where the meanings of HPE and ZPE are as provided below.
HPE: Hundred Percent Effect, negative control well without FGF19 nor compound. Final concentration of DMSO is 0.1%.
ZPE: Zero Percent Effect, positive control well without compound. Final concentration of FGF19 is 100 ng/mL, DMSO is 0.1%.
The concentrations and percent inhibition values for a test compound were plotted and the concentration of the compound required to achieve 50% inhibition (IC50) was determined with a four-parameter logistic dose response equation. Dose-response curves were generated using Prism (GraphPad Software, La Jolla, CA, US) to calculate IC50 values for each compound tested.

T1 sequence (P22455 460-802): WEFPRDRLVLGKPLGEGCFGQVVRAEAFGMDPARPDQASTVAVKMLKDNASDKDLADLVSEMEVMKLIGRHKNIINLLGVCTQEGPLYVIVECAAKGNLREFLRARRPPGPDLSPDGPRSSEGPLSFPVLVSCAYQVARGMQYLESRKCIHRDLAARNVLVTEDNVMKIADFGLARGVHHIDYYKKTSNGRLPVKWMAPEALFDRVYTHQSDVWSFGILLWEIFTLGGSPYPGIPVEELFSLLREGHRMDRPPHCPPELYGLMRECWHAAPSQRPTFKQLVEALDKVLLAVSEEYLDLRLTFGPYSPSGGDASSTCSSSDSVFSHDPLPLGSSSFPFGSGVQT

pIC50 [1] | pIC50 ([2]; Homo sapiens, Hep3B, 72 h) | pIC50 ([3]; Homo sapiens, Hep3B) | pIC50 [2] | pIC50 [3] | Structure (SMILES)
7.00 to 8.00 | < 7.00 | 7.00 to 8.00 |  |  | C=CC(=O)Nc1cnn(C)c1-c1n[nH]c2c1CCC(c1cc(OC)cc(OC)c1F)=C2 [Compound S5-P2, N-(5-(6-(2-fluoro-3,5-dimethoxyphenyl)-4,5-dihydro-1H-indazol-3-yl)-1-methyl-1H-pyrazol-4-yl)acrylamide]
7.00 to 8.00 |  |  | 7.00 to 8.00 | > 8.00 | C=CC(=O)Nc1cnn(C(C)C)c1-c1n[nH]c2c1CCC(c1c(F)c(OC)cc(OC)c1F)C2 (single isomer, unassigned) [Compound S17-P2, N-(5-(6-(2,6-difluoro-3,5-dimethoxyphenyl)-4,5,6,7-tetrahydro-1H-indazol-3-yl)-1-isopropyl-1H-pyrazol-4-yl)acrylamide]
> 8.00 | 7.00 to 8.00 | > 8.00 |  |  | C=CC(=O)Nc1cnn(CC)c1-c1n[nH]c2c1CC[C@H](c1c(F)c(OC)cc(OC)c1F)C2 [Compound S14-P2, (S)—N-(5-(6-(2,6-difluoro-3,5-dimethoxyphenyl)-4,5,6,7-tetrahydro-1H-indazol-3-yl)-1-ethyl-1H-pyrazol-4-yl) acrylamide]
> 8.00 |  |  | > 8.00 | > 8.00 | C=CC(=O)Nc1cn(C)nc1-c1n[nH]c2c1CCCC(c1cc(OC)cc(OC)c1F)C2 (single isomer, unassigned) [Compound S12-P4, N-(3-(7-(2-fluoro-3,5-dimethoxyphenyl)-1,4,5,6,7,8-hexahydrocyclohepta[c]pyrazol-3-yl)-1-methyl-1H-pyrazol-4-yl) acrylamide]
7.00 to 8.00 |  | 7.00 to 8.00 | < 7.00 |  | C=CC(=O)Nc1cnn(C(C)C)c1-c1n[nH]c2c1CCC(c1c(F)c(OC)cc(OC)c1F)C2 (single isomer, unassigned) [Compound S17-P1, N-(5-(6-(2,6-difluoro-3,5-dimethoxyphenyl)-4,5,6,7-tetrahydro-1H-indazol-3-yl)-1-isopropyl-1H-pyrazol-4-yl)acrylamide]
> 8.00 | > 8.00 | > 8.00 |  |  | C=CC(=O)Nc1c[nH]nc1-c1n[nH]c2c1CCC(c1c(F)c(OC)cc(OC)c1F)C2 (single isomer, unassigned) [Compound S15-P1, N-(3-(6-(2,6-difluoro-3,5-dimethoxyphenyl)-4,5,6,7-tetrahydro-1H-indazol-3-yl)-1H-pyrazol-4-yl)acrylamide]
> 8.00 | 7.00 to 8.00 | > 8.00 |  |  | [2H]C([2H])([2H])Oc1cc(OC([2H])([2H])[2H])c(F)c(C2CCc3c(-c4c(NC(=O)C=C)cnn4C)n[nH]c3C2)c1F (single isomer, unassigned) [Compound S8-P1, N-(5-(6-(2,6-difluoro-3,5-bis(methoxy-d3)phenyl)-4,5,6,7-tetrahydro-1H-indazol-3-yl)-1-methyl-1H-pyrazol-4-yl) acrylamide]
> 8.00 | 7.00 to 8.00 | > 8.00 |  |  | C=CC(=O)Nc1cnn(C)c1-c1n[nH]c2c1CCC(c1c(F)c(OC)cc(OC)c1F)C2 (single isomer, unassigned) [Compound S1-P1, N-(5-(6-(2,6-difluoro-3,5-dimethoxyphenyl)-4,5,6,7-tetrahydro-1H-indazol-3-yl)-1-methyl-1H-pyrazol-4-yl)acrylamide]
> 8.00 | 7.00 to 8.00 | > 8.00 |  |  | C=CC(=O)Nc1cn(C)nc1-c1n[nH]c2c1CCC[C@H](c1c(F)c(OC)cc(OC)c1F)C2 (single isomer, unassigned) [Compound S12-P1]
7.00 to 8.00 | 7.00 to 8.00 | > 8.00 |  |  | C=CC(=O)Nc1c[nH]nc1-c1n[nH]c2c1CCC(c1cc(OC)cc(OC)c1F)C2 (single isomer, unassigned) [Compound S15-P3, N-(3-(6-(2-fluoro-3,5-dimethoxyphenyl)-4,5,6,7-tetrahydro-1H-indazol-3-yl)-1H-pyrazol-4-yl)acrylamide]
7.00 to 8.00 |  | 7.00 to 8.00 | < 7.00 |  | C=CC(=O)Nc1cnn(C)c1-c1n[nH]c2c1COC(c1c(F)c(OC)cc(OC)c1F)C2 (single isomer, unassigned) [Compound S6-P2, N-(5-(6-(2,6-difluoro-3,5-dimethoxyphenyl)-1,4,6,7-tetrahydropyrano[4,3-c]pyrazol-3-yl)-1-methyl-1H-pyrazol-4-yl) acrylamide]
7.00 to 8.00 | 7.00 to 8.00 | > 8.00 |  |  | C=CC(=O)Nc1cnn(C)c1-c1n[nH]c2c1CCC(c1c(F)c(OC)cc(OC)c1F)=C2 [Compound S5-P1, N-(5-(6-(2,6-difluoro-3,5-dimethoxyphenyl)-4,5-dihydro-1H-indazol-3-yl)-1-methyl-1H-pyrazol-4-yl) acrylamide]
> 8.00 |  |  | 7.00 to 8.00 | > 8.00 | [2H]C([2H])([2H])Oc1cc(OC([2H])([2H])[2H])c(F)c(C2CCc3c(-c4c(NC(=O)C=C)cnn4C)n[nH]c3C2)c1F (single isomer, unassigned) [Compound S8-P2, N-(5-(6-(2,6-difluoro-3,5-bis(methoxy-d3)phenyl)-4,5,6,7-tetrahydro-1H-indazol-3-yl)-1-methyl-1H-pyrazol-4-yl) acrylamide]
7.00 to 8.00 |  |  | < 7.00 | 7.00 to 8.00 | [2H]C([2H])([2H])Oc1cc(OC([2H])([2H])[2H])c(F)c(C2CCc3c(-c4c(NC(=O)C=C)cnn4C)n[nH]c3C2)c1 (single isomer, unassigned) [Compound S8-P4, N-(5-(6-(2-fluoro-3,5-bis(methoxy-d3)phenyl)-4,5,6,7-tetrahydro-1H-indazol-3-yl)-1-methyl-1H-pyrazol-4-yl) acrylamide]

Structure (SMILES) | pIC50 [1] | pIC50 ([2]; Homo sapiens, Hep3B, 72 h) | pIC50 ([3]; Homo sapiens, Hep3B) | pIC50 [2] | pIC50 [3]
C=CC(=O)Nc1cn[nH]c1-c1n[nH]c2c1CCC[C@@H](c1c(F)c(OC)cc(OC)c1F)C2 [Compound S11-P2, (R)—N-(5-(7-(2,6-difluoro-3,5-dimethoxyphenyl)-1,4,5,6,7,8-hexahydrocyclohepta[c]pyrazol-3-yl)-1H-pyrazol-4-yl)acrylamide] | > 8.00 |  |  | > 8.00 | > 8.00
